Test results taken from patent publication US5571789A (Haemopep Pharma GmbH, priority 1992, dated 1996).
“Also recorded” adds a separate entry of the source.

How the values were obtained:
[1] = test system: broncho-constriction caused by inhalation of acetylcholin; experiment: Forced expiration (spirography, flow-volume curve) at the end of inhalatory acetylcholin provocation in rats under i.v. infusion; assay type: in vivo, wistar rats
Description: (§1) A total of 33 female 12 week wistar rats having body weights of 300 g served as test animals. The design of the study was that of a simple blind approach. On each of the experiment days, animals of the control group and of the verum group were measured.
Employing a test animal body plethysmograph allowed for continuous measurement of the respiration volume (VT), respiration frequency (f), respiration minute volume (MV), resistance of the lung (RL), dynamic compliance (Cdyn), respiration flow (F) and transpulmonary pressure (PTP) of a narcotized, intubated and spontaneously breathing rat. Circulation monitoring was accomplished by EKG recording with evaluation of the heart frequency (HR).
After steady state conditions were attained the initial values of spontaneous respiration were measured first. […] In each case evaluations of the continuously determined spontaneous parameters were made 5 minutes after the beginning of the infusion before an inhalatory acetylcholin (ACh) provocation was made (basic values before Ach provocation).
By means of an injectomar device the test animals were infused 0.5 ml of solution continuously over a total of 10 minutes.
(§2) 5 minutes after the beginning of the infusion each rat was provoked by inhalation of a defined amount of an ACh aerosol. Evaluation of the spontaneous respiration parameters for each animal was performed after a total inhalation volume of 600 ml (values at the end of ACh provocation).
To complete the experiments, a forced expiration was performed on each animal in hyperventilation induced apnea. Flow-volume and flow-time (spirography) relations were recorded. The flow-volume curve allows for the evaluation of peak expiratory flow (=PEF), maximum mid-expiratory flow (=MMEF), and flow at 75, 50, 25, and 10% of the forced vital capacity (e.g. FEF 75). Spirography of rats primarily yields the forced vital capacity (FVC) and the expired volume after 0.05, 0.10, 0.20 and 0.40 seconds as an absolute value in ml (e.g. FEV 0.05) or in percent of FVC (e.g. FEV 0.05%).

[2] = test system: spontaneous respiration parameters (F, PTP, VT, Cdyn, RL, f, MV); experiment: Spontaneous respiration parameters by body plethysmograph in narcotized rats; assay type: in vivo, wistar rats; conditions: for Effect of infusion on spontaneous respiration parameters after ACh provocation: after total inhalation of 600 ml ACh, groups B-D versus control
Description: as §1
After steady state conditions were attained the initial values of spontaneous respiration were measured first. Thereafter, a randomized infusion of placebo, urodilatin, or ANP was started. In each case evaluations of the continuously determined spontaneous parameters were made 5 minutes after the beginning of the infusion before an inhalatory acetylcholin (ACh) provocation was made (basic values before Ach provocation).
as §2

[3] = test system: bronchial asthma (lung function parameters); experiment: Lung function in patients with bronchial asthma under 40 minute i.v. infusion; assay type: in vivo, human; conditions: for FEV1.0 versus pre values and 20 ng/kg/min group: after 10 minutes of infusion; for PEF, MEF75, MEF50 and MEF25: during infusion; for VCmax versus pre values: during infusion and until 10 minutes thereafter
Description: The anamnesis gave no evidence for an exacerbation of the disease in the last 8 weeks. No nicotine abuse was known from any of the patients. Additional inclusion criteria were defined by an expiratory one-second-capacity (FEV1.0) of 40 to 70% of the maximum vital capacity (VCmax) before administration of a broncho-spasmolytic agent, an effect of a β2 -sympathomimetic on FEV1.0 of ≥15%, no alteration of the maintenance antiobstructive treatment and no administration of oral corticoids in the last 4 weeks before the beginning of the study. Within 8 hours before the beginning of the examinations no inhalatory application of a β2 -sympathomimetic must have occurred anymore.

[4] = cited from earlier work
[5] = group B, 40 ng/kg/min i.v. infusion, end of ACh provocation
[6] = group B, 40 ng/kg/min, 5 minutes after beginning of infusion, before ACh

For urodilatin, the “Protective effect at 40 ng/kg/min versus ANP in a twofold higher dose on a molar basis” value ([1]; 40 ng/kg/min versus 70.305 ng/kg/min ANP) was “clearly more effective than ANP; also recorded: more obvious protective effect than ANP”, the “Protection from broncho-constriction (improved forced expiration)” value ([1]; animal experiments, parenteral administration) was “obvious protection” and the “Effect compared with equimolar doses of ANP” value ([1]; broncho-constriction by inhaled acetylcholin, parenteral administration) was “more than two times greater”. For the same compound, the “FEV 0.1% (expired volume after 0.1 seconds based on FVC) versus control group A” value [1, 5] was “significant improvement”, the “PEF, MMEF, FEF 75, FEF 50 and FEF 25 of the forced expiratory flow-volume curve versus control group A” value [1, 5] was “clear improvement” and the “PEF, MMEF, FEF 75, FEF 50 and FEF 25 of the forced expiratory flow-volume curve versus control group A” value ([1]; group C, 80 ng/kg/min i.v. infusion, end of ACh provocation) was “clear improvement”. The “Effectiveness and duration of action versus ANP (flow-volume curves, FIGS. 1 to 3)” value ([1]; groups B and C (40, 80 ng/kg/min) versus group D (70.3 ng/kg/min ANP)) was “more effective and acts for a longer period of time”, the “Other FEV and FEV % values, comparison of groups A-D” value ([1]; i.v. infusion 40 or 80 ng/kg/min, end of ACh provocation) was “not significantly distinct” and the “Effect on the ACh induced changes of the parameters of forced expiration relative to control group A” value ([1]; infusion of 40 and 80 ng/kg/min) was “clearly protective effects”. For the same compound, the “Effect of infusion on spontaneous respiration parameters after ACh provocation” value [2] was “without a significant effect”, the “Cdyn versus initial values” [2, 6] was “small, significant decrease” and the “PTP and RL versus initial values” [2, 6] was “slight, significant increase”. The “Respiration frequency versus initial values” ([2]; group C, 80 ng/kg/min, 5 minutes after beginning of infusion, before ACh) was “slight, significant decrease”, the “FEV1.0 versus pre values” ([3]; 20 ng/kg/min, any time during or after the infusion) was “did not show any significant effect” and the Flow-volume parameters ([3]; 20 ng/kg/min, p<0.05 after 10 and 30 minutes of infusion) was “increase of the MEF75 measurement value alone”. For the same compound, the “FEV1.0 versus initial values 30 minutes after completion of the infusion” value ([3]; 40 ng/kg/min) was “still significantly different from the initial values”, the “Maxima of PEF, MEF75, MEF50, MEF25 under infusion versus results after Salbutamol inhalation” value ([3]; 40 ng/kg/min) was “not significantly different from the measurement results after Salbutamol inhalation, except for MEF50” and the “Time of maximum FEV1.0 values” ([3]; 40 ng/kg/min infusion) was 30 min. The “FEV1.0 versus pre values and 20 ng/kg/min group” value ([3]; 40 ng/kg/min) was “significant increase”, the “PEF, MEF75, MEF50 and MEF25” value ([3]; 40 ng/kg/min) was “increased during the infusion” and the “VCmax versus pre values” ([3]; 40 ng/kg/min) was “significant increase”. The “Maxima of PEF, MEF75, MEF50, MEF25 under infusion versus results after Salbutamol inhalation” value ([3]; 60 ng/kg/min) was “not significantly different”, the “Maximum FEV1.0 effect versus values after inhalation of Salbutamol” value ([3]; 60 ng/kg/min) was “no longer significantly different” and the “Time of maximum effect on FEV1.0” value ([3]; 60 ng/kg/min infusion) was 20 min. For the same compound, the “FEV1.0 versus pre values and 20 ng/kg/min group” value ([3]; 60 ng/kg/min) was “significant increase”, the “PEF, MEF75, MEF50 and MEF25” value ([3]; 60 ng/kg/min) was “increased during the infusion” and the “VCmax versus pre values” ([3]; 60 ng/kg/min) was “significant increase”. The “VCmax maxima versus results after Salbutamol inhalation” value ([3]; 40 and 60 ng/kg/min) was “did not show any significant differences”, the “MEF50, difference between 40 and 60 ng/kg/min” value ([3]; after 20 minutes of infusion) was “significant difference” and the Broncho-dilatation ([3]; intravenous infusion of 40 and 60 ng/kg/min over 40 minutes, clinically stable bronchial asthma) was “did not result in a significant broncho-dilatation”. The “Glomerular filtration rate, excretion of water, sodium and chloride” value ([4]; intravenous application) was “increase the glomerular filtration rate, the excretion of water, sodium and chloride”.

For `CC[C@H](C)[C@@H]1NC(=O)[C@H](CCCNC(=N)N)NC(=O)[C@H](CC(=O)O)NC(=O)[C@H](CCSC)NC(=O)[C@H](CCCNC(=N)N)NC(=O)CNC(=O)CNC(=O)[C@H](Cc2ccccc2)NC(=O)[C@@H](NC(=O)[C@H](CO)NC(=O)[C@H](CO)NC(=O)[C@H](CCCNC(=N)N)NC(=O)[C@H](CCCNC(=N)N)NC(=O)[C@H](CC(C)C)NC(=O)[C@@H](N)CO)CSSC[C@@H](C(=O)N[C@@H](CC(N)=O)C(=O)N[C@@H](CO)C(=O)N[C@@H](Cc2ccccc2)C(=O)N[C@@H](CCCNC(=N)N)C(=O)N[C@@H](Cc2ccc(O)cc2)C(=O)O)NC(=O)CNC(=O)[C@H](CC(C)C)NC(=O)CNC(=O)[C@H](CO)NC(=O)[C@H](CCC(N)=O)NC(=O)[C@H](C)NC(=O)CNC1=O` [ANP, atrial natriuretic peptide, reference compound], the “Effect on the ACh induced changes of the parameters of forced expiration” value ([1]; 70.305 ng/kg/min, equimolar with 80 ng/kg/min urodilatin) was “less clearly seen”, the “Flow-volume curve parameters versus control group A” value ([1]; group D, 70.305 ng/kg/min i.v. infusion (equimolar to group C), end of ACh provocation) was “significant increase only of PEF and FEF 75” and the “Effect of infusion on spontaneous respiration parameters after ACh provocation” value [2] was “without a significant effect”. For the same compound, the Hypotensive effect ([4]; in vivo, iv) was “hypotensive effect observed”.

In the case of `CC(C)(C)NCC(O)c1ccc(O)c(CO)c1` (stereo not shown) [Salbutamol, reference compound], the FEV1.0 ([3]; 1.25 mg Salbutamol inhaled, all three groups) was “significant increase in FEV1.0” and the “Flow-volume parameters (PEF, MEF75, MEF50, MEF25)” value ([3]; Salbutamol inhalation, all dosage groups) was “significant effect”.
